Measured values taken from the supplement of paper PMC13380429.

Experiments:
Conditions in all cases: 72 h
Calu-3 [1] = assay: drug sensitivity score (DSS) for viability; higher = more toxic; extreme values may be limits of the assay
HepG2 [2] = assay: as above
Vero E6 [3] = assay: as above
U2OS [4] = assay: as above
Caco-2 [5] = assay: as above
Calu-3 [6] = assay: relative viability EC50 (midpoint between 100% and the lowest measured viability); higher = less toxic
HepG2 [7] = assay: as above
Vero E6 [8] = assay: as above
U2OS [9] = assay: as above
Caco-2 [10] = assay: as above
Calu-3 [11] = assay: cell viability relative to DMSO; higher = less toxic
HepG2 [12] = assay: as above
Vero E6 [13] = assay: as above
U2OS [14] = assay: as above
Caco-2 [15] = assay: as above

Row | Structure (SMILES) | drug sensitivity score (Calu-3 [1]) | drug sensitivity score (HepG2 [2]) | drug sensitivity score (Vero E6 [3]) | drug sensitivity score (U2OS [4]) | drug sensitivity score (Caco-2 [5]) | relative viability EC50 (Calu-3 [6]) [µM] | relative viability EC50 (HepG2 [7]) [µM] | relative viability EC50 (Vero E6 [8]) [µM] | relative viability EC50 (U2OS [9]) [µM] | relative viability EC50 (Caco-2 [10]) [µM] | cell viability (Calu-3 [11]; 1 nM) [%] | cell viability (Calu-3 [11]; 10 nM) [%] | cell viability (Calu-3 [11]; 100 nM) [%] | cell viability (Calu-3 [11]; 1000 nM) [%] | cell viability (Calu-3 [11]; 10000 nM) [%] | cell viability (HepG2 [12]; 1 nM) [%] | cell viability (HepG2 [12]; 10 nM) [%] | cell viability (HepG2 [12]; 100 nM) [%] | cell viability (HepG2 [12]; 1000 nM) [%] | cell viability (HepG2 [12]; 10000 nM) [%] | cell viability (Vero E6 [13]; 1 nM) [%] | cell viability (Vero E6 [13]; 10 nM) [%] | cell viability (Vero E6 [13]; 100 nM) [%] | cell viability (Vero E6 [13]; 1000 nM) [%] | cell viability (Vero E6 [13]; 10000 nM) [%] | cell viability (U2OS [14]; 1 nM) [%] | cell viability (U2OS [14]; 10 nM) [%] | cell viability (U2OS [14]; 100 nM) [%] | cell viability (U2OS [14]; 1000 nM) [%] | cell viability (U2OS [14]; 10000 nM) [%] | cell viability (Caco-2 [15]; 1 nM) [%] | cell viability (Caco-2 [15]; 10 nM) [%] | cell viability (Caco-2 [15]; 100 nM) [%] | cell viability (Caco-2 [15]; 1000 nM) [%] | cell viability (Caco-2 [15]; 10000 nM) [%]
1 | C[C@H]1COC2=C1C(=O)C(=O)c1c2ccc2c1CCCC2(C)C [cryptotanshinone] | 0 | 0 | 0 | 0 | 0.1 | > 10 | > 10 | > 10 | > 10 | > 10 | 111 | 111 | 99.1 | 107 | 108 | 97.3 | 93.3 | 97.2 | 98.9 | 98 | 95 | 102 | 103 | 98.5 | 100 | 101 | 103 | 100 | 101 | 94.4 | 97.2 | 93 | 98.1 | 102 | 85.4
2 | O=[N+]([O-])/N=C1\NCCN1Cc1ccc(Cl)nc1 [imidacloprid] | 0 | 0 | 0 | 0 | 0 | > 10 | > 10 | > 10 | > 10 | > 10 | 103 | 98.5 | 103 | 98.8 | 106 | 98.2 | 109 | 99.7 | 98.9 | 93.1 | 95.1 | 95.8 | 96.7 | 98 | 96.5 | 97.4 | 95.7 | 103 | 92.3 | 94.4 | 104 | 94.6 | 99.8 | 88.6 | 104
3 | O=C(O)c1ccc2c(c1)nc(Nc1cccc(Cl)c1)c1ccncc12 [CX-4945] | 0.3 | 0.7 | 0.4 | 1.1 | 0 | > 10 | > 10 | > 10 | > 10 | > 10 | 111 | 103 | 111 | 101 | 83.2 | 106 | 109 | 92 | 102 | 77 | 101 | 98.4 | 101 | 95.1 | 86.5 | 102 | 101 | 101 | 88.4 | 84.8 | 98.7 | 95.2 | 92 | 95.6 | 97.7
4 | COc1cc(OC)nc(O[C@H](C(=O)O)C(OC)(c2ccccc2)c2ccccc2)n1 [darusentan] | 0 | 0 | 0 | 0 | 0 | > 10 | > 10 | > 10 | > 10 | > 10 | 111 | 93.3 | 99.1 | 101 | 101 | 98.2 | 98.8 | 93.6 | 95.5 | 91.3 | 96.5 | 98.8 | 97.2 | 92.3 | 98.6 | 97.1 | 102 | 91 | 96.9 | 94.6 | 102 | 96.9 | 97.3 | 95.1 | 102
5 | Oc1cccc(O)c1 [resorcinol] | 0 | 2.5 | 0 | 0 | 0 | > 10 | > 10 | > 10 | > 10 | > 10 | 97.5 | 102 | 114 | 99.2 | 103 | 105 | 92.9 | 90.4 | 79.2 | 89 | 103 | 96 | 97.4 | 96.5 | 107 | 97.6 | 93.8 | 96.2 | 96.8 | 103 | 103 | 89.8 | 95.5 | 100 | 103
6 | C[C@@H]1NC(C)(C)CO[C@@]1(O)c1cccc(Cl)c1 [radafaxine] | 0 | 0 | 0 | 0 | 0 | > 10 | > 10 | > 10 | > 10 | > 10 | 95.4 | 92.4 | 94.1 | 101 | 90.3 | 98.3 | 99.7 | 97.6 | 98.4 | 90.3 | 100 | 97.9 | 106 | 96.4 | 105 | 101 | 103 | 101 | 102 | 97.5 | 90.2 | 94.4 | 97.4 | 99.9 | 95
7 | COc1ccc([C@]2(C#N)CC[C@@H](C(=O)O)CC2)cc1OC1CCCC1 [cilomilast] | 0.3 | 0 | 0 | 0 | 0 | > 10 | > 10 | > 10 | > 10 | > 10 | 97.8 | 112 | 102 | 88.9 | 95.9 | 89.4 | 93.6 | 98.3 | 97.2 | 104 | 88.2 | 98.7 | 89.8 | 95.9 | 97.9 | 103 | 97.4 | 99.7 | 100 | 100 | 98.3 | 91.3 | 106 | 106 | 100
8 | CCCCN1CCCCC1C(=O)Nc1c(C)cccc1C (stereo not given) [bupivacaine] | 0 | 0 | 0 | 0 | 0 | > 10 | > 10 | > 10 | > 10 | > 10 | 95.9 | 101 | 80.2 | 99.1 | 88.4 | 100 | 106 | 92.7 | 97.2 | 103 | 103 | 103 | 104 | 98.7 | 99.6 | 95.7 | 96.7 | 94.6 | 103 | 95.7 | 85.3 | 88.2 | 71.6 | 96.7 | 82.9
9 | O=C(O)CC1CC(c2ccccc2)=NO1 (stereo not given) [VGX-1027] | 0 | 0 | 0 | 0 | 0 | > 10 | > 10 | > 10 | > 10 | > 10 | 91.7 | 101 | 91.8 | 93.7 | 103 | 98.1 | 93.8 | 101 | 104 | 115 | 94.1 | 94.7 | 97.6 | 95 | 102 | 101 | 94.8 | 97.1 | 103 | 103 | 98.2 | 106 | 99.6 | 96.1 | 104
10 | O=C(NCCO)c1cccc(-c2cc(Nc3ccc(OC(F)(F)F)cc3)ncn2)c1 [GNF-5] | 0 | 0 | 0 | 0 | 0.4 | > 10 | > 10 | > 10 | > 10 | > 10 | 102 | 99.4 | 89.8 | 107 | 94 | 99.5 | 95.2 | 98.2 | 98.1 | 89.4 | 91.5 | 97.4 | 94.6 | 105 | 102 | 95.7 | 101 | 98.5 | 106 | 98.5 | 94.1 | 92.7 | 95.3 | 107 | 78.5
11 | COc1cc2c(Nc3ccc(Cl)c(Cl)c3F)ncnc2cc1OC[C@@H]1C[C@@H]2CN(C)C[C@@H]2C1 [XL647] | 15.3 | 6.3 | 13.6 | 8.2 | 8.4 | 0.431 | 2.55 | 0.612 | 1.94 | 1.39 | 98.8 | 93.2 | 82.4 | 31 | 0.7 | 102 | 89.7 | 99.7 | 92.9 | 6.7 | 96.8 | 100 | 85.1 | 39.2 | -0.4 | 95.9 | 95.9 | 93.7 | 84.2 | -0.3 | 92.1 | 92.6 | 95 | 72.1 | 14.9
